# Laboratory results taken from patent publication US9315815B2, “Method of high-throughput sorting of high expression cell and cells sorted therefrom” (Taipei Medical University, priority 2013, dated 2016).
# Tests used:
# [1] = target: T1, furin protease (Homo sapiens, UniProt P09958); test: Secretion of anti-EGFR antibody by 293T/anti-EGFR cells with furin inhibitor; assay type: cell-based; details: furin inhibitor added vs absent (FIG. 2A)
# T1 construct: rich furin protease in Golgi can effectively cleave a furin cleavage site; endogenous in cells; host or cells: 293T/anti-EGFR (HEK-293 derived) cells
# T1 sequence (P09958 108-794): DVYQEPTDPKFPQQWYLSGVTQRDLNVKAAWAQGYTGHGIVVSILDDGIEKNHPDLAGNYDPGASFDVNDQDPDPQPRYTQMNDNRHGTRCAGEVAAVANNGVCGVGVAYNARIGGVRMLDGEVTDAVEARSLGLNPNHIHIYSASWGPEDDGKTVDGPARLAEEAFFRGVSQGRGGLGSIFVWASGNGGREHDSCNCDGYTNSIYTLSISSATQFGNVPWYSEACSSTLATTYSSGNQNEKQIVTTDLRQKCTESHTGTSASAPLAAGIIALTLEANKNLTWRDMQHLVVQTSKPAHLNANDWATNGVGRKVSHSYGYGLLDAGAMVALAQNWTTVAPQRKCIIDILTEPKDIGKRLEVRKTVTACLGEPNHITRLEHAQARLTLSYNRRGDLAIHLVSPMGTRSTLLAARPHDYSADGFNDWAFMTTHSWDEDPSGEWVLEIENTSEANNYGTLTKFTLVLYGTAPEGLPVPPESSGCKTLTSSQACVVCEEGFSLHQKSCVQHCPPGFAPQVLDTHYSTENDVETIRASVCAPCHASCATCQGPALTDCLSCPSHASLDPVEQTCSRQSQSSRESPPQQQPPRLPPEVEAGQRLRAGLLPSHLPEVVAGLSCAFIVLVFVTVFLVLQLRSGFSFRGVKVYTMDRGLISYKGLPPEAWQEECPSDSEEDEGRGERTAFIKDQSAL
# Excerpt: (§1) (A) To detect the concentration of anti-EGFR antibody of 293T/anti-EGFR cell culture, Dec-RVKR-CMK was used as furin inhibitor. The Y axis represents concentration of the secreted anti-EGFR antibody, while the X axis represents cell groups. […] (B) To detect anti-EGFR Ab-RAKR-mB7 expression of 293T/anti-EGFR on cell membrane, FACS technology combined with FITC conjugated anti-human IgG antibody was used. The filled region represents 293T cells as control group; the solid line represents 293T/anti-EGFR cell without furin inhibitor; the dashed line represents 293T/anti-EGFR cell with furin inhibitor.
# Take a humanized anti-EGFR antibody, for example; we transfected an anti-EGFR Ab-RAKR-mB7 gene into a human embryonic kidney cell with a Lentivirus vector to construct a 293T/anti-EGFR cell line. In the absence of a furin inhibitor (Dec-RVKR-CMK), said 293T/anti-EGFR can continuously secrete anti-EGFR antibody into extracellular matrix (see FIG. 2A).
# [2] = target: T1, furin protease; test: FACS detection of anti-EGFR Ab-RAKR-mB7 on 293T/anti-EGFR cell membrane with furin inhibitor; assay type: cell-based; details: 293T/anti-EGFR cells, furin inhibitor added, FITC anti-human IgG, FACS (FIG. 2B)
# Excerpt: as §1
# The gene was transfected into mammalian cells (human embryonic kidney cells, HEK-293). Under normal conditions, rich furin protease in Golgi can effectively cleave a furin cleavage site ([…]) between anti-EGFR antibody and mB7 to allow secretion of the anti-EGFR antibody into an extracellular matrix. When furin inhibitor (DEC-RVKR-CMK) was added, to inhibit the activity of the furin protease, the anti-EGFR Ab-RAKR-mB7 would not be cleaved by furin protease and would be stably anchored on the cell membrane surface. Then, FITC-conjugated anti-human antibody was used to label the anti-EGFR Ab-RAKR-mB7 on the cell membranes. By using FACS, the cells with high expression of anti-EGFR Ab-RAKR-mB7 on their cell membranes can be rapidly and high-throughput sorted. […]
# [3] = target: T2, furin protease (Cricetulus griseus, UniProt A0A9J7CGZ7); test: FACS detection of PCD-GB-RAKR-mB7 on LEC1/PCD-GB cell membrane with furin inhibitor; assay type: cell-based, Chinese Hamster; details: LEC1/PCD-GB cells, furin inhibitor added, anti-myc antibody, FACS (FIG. 6B)
# T2 construct: rich furin protease in Golgi can effectively cleave furin cleavage site; endogenous in cells; host or cells: LEC1/PCD-GB (CHO Lec1) cells
# T2 sequence (A0A9J7CGZ7 27-794): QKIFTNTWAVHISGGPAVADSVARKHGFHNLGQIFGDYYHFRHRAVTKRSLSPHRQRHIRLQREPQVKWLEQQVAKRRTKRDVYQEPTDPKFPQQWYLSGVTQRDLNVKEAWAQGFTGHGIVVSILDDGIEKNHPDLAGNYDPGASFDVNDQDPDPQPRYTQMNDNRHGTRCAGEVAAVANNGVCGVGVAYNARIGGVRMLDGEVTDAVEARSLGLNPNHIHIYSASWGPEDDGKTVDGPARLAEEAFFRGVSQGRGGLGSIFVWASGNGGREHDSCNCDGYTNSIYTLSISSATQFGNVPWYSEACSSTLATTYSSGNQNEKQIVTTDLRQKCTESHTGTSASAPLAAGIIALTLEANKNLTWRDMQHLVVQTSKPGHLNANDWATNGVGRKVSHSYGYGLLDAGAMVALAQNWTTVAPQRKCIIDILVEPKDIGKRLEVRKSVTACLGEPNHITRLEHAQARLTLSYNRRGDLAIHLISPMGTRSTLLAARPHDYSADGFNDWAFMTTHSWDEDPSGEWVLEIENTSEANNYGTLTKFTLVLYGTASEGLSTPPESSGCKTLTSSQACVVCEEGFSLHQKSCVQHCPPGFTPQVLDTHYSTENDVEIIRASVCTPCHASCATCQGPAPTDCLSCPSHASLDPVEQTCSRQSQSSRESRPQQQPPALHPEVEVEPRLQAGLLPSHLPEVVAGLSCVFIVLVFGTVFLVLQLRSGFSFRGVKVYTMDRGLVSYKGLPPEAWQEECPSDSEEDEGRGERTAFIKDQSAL
# Excerpt: (A) To detect the expression of PCD-GB recombinant protein in LEC1 and LEC1/PCD-GB cells, Western blot technique accompanied with mouse anti-myc antibody and goat anti-mouse IgG-HRP was used. (B) Furin inhibitor (Dec-RVKR-CMK) was used to inhibit the furin activity of LEC1 and LEC1/PCD-GB cells. Then, to detect the expression of PCD-GB-RAKR-mB7 on cell membrane, FACS technology accompanied with mouse anti-myc antibody and goat anti-mouse IgG-HRP was used. The filled region represents LEC1 cells as control group; solid line represents LEC1/PCD-GB cells without furin inhibitor; dashed line represents LEC1/PCD-GB cells with furin inhibitor. (C) The X axis represents the expression of PCD-GB-RAKR-mB7 on cell membrane (mean relative fluorescence intensity). The Y axis represents the production of PCD-GB stored in lysosomes. Each dot represents a single individual LEC1/PCD-GB cell.
# Example 2 exemplifies a perforin-granzyme fusion protein (PCD-GB) which is expressed in lysosome. […] The gene was transfected into mammalian cells (Chinese Hamster Ovary cells, LEC1). Under normal conditions, rich furin protease in Golgi can effectively cleave furin cleavage site ([…]) between PCD-GB and mB7 so that PCD-GB would be stored in lysosome. […]
substance,measurement,setting,value
Dec-RVKR-CMK,secretion of anti-EGFR antibody,[1],decreased secretion of anti-EGFR antibody
same,expression of anti-EGFR Ab-RAKR-mB7 on cell membrane,[2],expression of anti-EGFR Ab-RAKR-mB7 was on the cell membrane
same,PCD-GB-RAKR-mB7 detected on cell membrane,[3],few PCD-GB-RAKR-mB7 would be detected on the LEC1/PCD-GB cell membrane
